In US9822136B2, “Chemical inhibitors of sebocyte function” (priority 2016, dated 2017):
“Also recorded” adds a separate entry of the source.

Columns and labels:
cloned hTRPM8 channel = target: T1, cloned hTRPM8 channel (Homo sapiens, UniProt Q7Z2W7); experiment: TRPM8 activation, FLIPR calcium assay in CHO cells; format: cell-based; settings: for Relative Potency to I-menthol: TRPM8 EC50 relative to I-menthol
T1 construct: host or cells: CHO cells
Description: The in vitro effects of test articles were first evaluated on cloned hTRPM8 channel. […] The test cells were Chinese Hamster Ovary (CHO) cells stably transfected with human TRPM8 cDNAs. […] Substances were evaluated at 8 concentrations (0.03 to 300 μM) with n=4 replicates per determination. For Fluorescence Imaging Plate Reader ([…]″) assay, cells were plated in 384-well black wall, flat clear-bottom microtiter plates (Type: BD Biocoat Poly-D-Lysine Multiwell Cell Culture Plate) at approximately 30,000 cells per well. Cells were incubated at 37° C. overnight to reach a near confluent monolayer appropriate for use in a fluorescence assay. The test procedure was to remove the growth media and to add 40 μL of HBPS containing Fluo-8 for 30 minutes at 37° C. 10 μL of test compound, vehicle, or control solutions in HBPS were then added to each well and read for 4 min using a Fluo-8 calcium kit and the […]″ instrument (Molecular Devices, Sunnyvale, California). […] J. Neurosci.
Concentration-response data were analysed via the FLIPR Control software that is supplied with the FLIPR System (MDS-AT) and fitted to a Hill equation of the following form: Response=Base+(Max−Base)/1+(xhalf/x)^rate, where: “Base” is the response at low concentrations of test compound; “Max” is the maximum response at high concentrations; “xhalf” is the EC50 (the concentration of test compound producing half-maximal activation); and “rate” is the Hill coefficient. Nonlinear least squares fits were made assuming a simple one-to-one binding model.

zygomatic/forehead skin = experiment: Cooling sensation after application to zygomatic/forehead skin; format: in vivo, human; settings: for Sensory Quality / Duration / Onset: 20 mg/mL in distilled water; for Duration: offset minus onset; for Onset: time to reach 2 units of coolness
Description: When certain Dapa compounds are applied to the zygomatic and forehead skin, sensations of coolness/cold are felt and can be graded in intensity [Wei. 1-Di-isopropyl-phosphinoyl-alkanes as topical agents for the treatment of sensory discomfort. US 2015/0164924]. For example, one can rate the sensation as 0, 1, 2, or 3 with: 0 as no change; 1 as slight coolness, or cold; 2 as clear-cut signal of coolness or cold; and 3 as strong cooling or cold. The intervals for recording are 5 to 15 minutes, until at least two successive zeroes are obtained. The onset of drug action is taken as the time to reach 2 units of coolness intensity. The active compounds here, e.g, 1-7 produce cooling with 1 min after application. The duration of Dapa-compound action is defined as the offset time minus the onset time. The offset of drug action is defined here as the time when coolness intensity drops below 2, after previously surpassing 2 units.
Test compounds were applied to the skin of the forehead and zygomatic using cotton gauze (0.4 g, rectangular, 50 mm×60 mm; from CS-being, Daisan Cotton, Japan). The test compounds were used at a concentration of 20 mg/mL in distilled water. From the data shown above, it can be seen that, among these compounds, 1-7 and 1-8 evoked cool/cold on zygomatic/forehead skin.

[1] = tested on: forehead skin of human subjects; experiment: Sebum secretion of forehead skin (Sebumeter); format: in vivo; settings: 20 mg/mL on forehead, FIG. 2
Description: Sebum is an oily substance secreted by the sebaceous gland. These glands, attached to hair follicles, are abundant on the face and scalp. Increased secretion of sebum, for example during teenage years, and associated with androgen stimulation is associated with acne. […] Sebum secretion was measured here using a Sebumeter®, a standardized instrument based on a mat tape brought into contact with the skin, and then grease spot photometry [CK Electronic, Cologne, Germany].
In nine human subjects the baseline secretion of sebum was 188±19 μg/cm^2. […] This pharmacological effect has not been previously observed with Dapa-compounds such as 1-7. This was a new and unexpected observation.

sebocytes [2] = experiment: Sebocyte viability, MTT assay; format: cell-based, human; settings: for Activity relative to 1-8 in the MTT sebocyte assay: FIG. 4; for Sebocyte cell viability as % of controls (FIG. 4): at 0.10 μM
Description: (§1) The activities of 1-7 and 1-8 on an immortalized sebocyte cell line were examined in the laboratory of Prof Im Myung using methods previously described [Im et al. Epigallocatechin-3-gallate suppresses IGF-I-induced lipogenesis and cytokine expression in SZ95 sebocytes. J. Invest. Dermatol. 132, 2700-8 (2012)]. Proliferation of the sebocytes was measured using the MTT assay, by examination of micrographs of the cells in culture, and ^3H-thymidine incorporation. The effects of the test agents on lipogenesis were further studied by Oil Red O staining and analysis of the lipid composition of the cells. Studies were also conducted on signaling pathways for lipogenesis [PPAR and SREBP-1, Trivedi et al. Peroxisome proliferator-activated receptors increase human sebum production. J. Invest. Dermatol. 126, 2002-9 (2006)].
The MTT assay is a colorimetric assay for cell viability. MTT [3-(4,5-dimethylthiazol-2-yl)-2-5-diphenyltetrazolium bromide], a yellow tetra-azole dye, is reduced to purple formazan in living cells by NADPH-dependent oxidoreductase enzymes. When the number of viable cells decreases the amount of enzymatic activity and purple color decreases and this can be measured with a spectrophotometer.
(§2) 1-7 and 1-8 are sensory cooling agents on the skin and activators [agonists] of the TRPM8 ion channel protein. […] The indicators used for direct comparison were sebocyte viability measured in the MTT assay and then the ^3H-thymidine incorporation assay.

sebocytes [3] = experiment: 3H-thymidine incorporation into sebocytes; format: cell-based, human; settings: for activity at 10 µM: Homo sapiens, 3 h, uptake into sebocytes, NS = not significant
Description: as §1, §2

human sebocytes = experiment: Inhibition of sebocyte function in cultured human sebocytes (assay not specified); format: cell-based
Description: as §1, §2

sebocytes [4] = experiment: IGF-1 stimulated lipogenesis in sebocytes (Oil Red O, thin-layer and gas chromatography of lipids); format: cell-based, human; settings: IGF-1 stimulated sebocytes
Description: as §1, with “132, 2700-8 (2012)].” left out, “Dermatol.” for “Dermatol. 126, 2002-9 (2006)].”
J. Invest. Dermatol. […] Oil Red 0 [Sudan Red 5B] is a diazo dye used for staining neutral triglycerides and lipids on cells.

T1 sequence (Q7Z2W7 whole entry): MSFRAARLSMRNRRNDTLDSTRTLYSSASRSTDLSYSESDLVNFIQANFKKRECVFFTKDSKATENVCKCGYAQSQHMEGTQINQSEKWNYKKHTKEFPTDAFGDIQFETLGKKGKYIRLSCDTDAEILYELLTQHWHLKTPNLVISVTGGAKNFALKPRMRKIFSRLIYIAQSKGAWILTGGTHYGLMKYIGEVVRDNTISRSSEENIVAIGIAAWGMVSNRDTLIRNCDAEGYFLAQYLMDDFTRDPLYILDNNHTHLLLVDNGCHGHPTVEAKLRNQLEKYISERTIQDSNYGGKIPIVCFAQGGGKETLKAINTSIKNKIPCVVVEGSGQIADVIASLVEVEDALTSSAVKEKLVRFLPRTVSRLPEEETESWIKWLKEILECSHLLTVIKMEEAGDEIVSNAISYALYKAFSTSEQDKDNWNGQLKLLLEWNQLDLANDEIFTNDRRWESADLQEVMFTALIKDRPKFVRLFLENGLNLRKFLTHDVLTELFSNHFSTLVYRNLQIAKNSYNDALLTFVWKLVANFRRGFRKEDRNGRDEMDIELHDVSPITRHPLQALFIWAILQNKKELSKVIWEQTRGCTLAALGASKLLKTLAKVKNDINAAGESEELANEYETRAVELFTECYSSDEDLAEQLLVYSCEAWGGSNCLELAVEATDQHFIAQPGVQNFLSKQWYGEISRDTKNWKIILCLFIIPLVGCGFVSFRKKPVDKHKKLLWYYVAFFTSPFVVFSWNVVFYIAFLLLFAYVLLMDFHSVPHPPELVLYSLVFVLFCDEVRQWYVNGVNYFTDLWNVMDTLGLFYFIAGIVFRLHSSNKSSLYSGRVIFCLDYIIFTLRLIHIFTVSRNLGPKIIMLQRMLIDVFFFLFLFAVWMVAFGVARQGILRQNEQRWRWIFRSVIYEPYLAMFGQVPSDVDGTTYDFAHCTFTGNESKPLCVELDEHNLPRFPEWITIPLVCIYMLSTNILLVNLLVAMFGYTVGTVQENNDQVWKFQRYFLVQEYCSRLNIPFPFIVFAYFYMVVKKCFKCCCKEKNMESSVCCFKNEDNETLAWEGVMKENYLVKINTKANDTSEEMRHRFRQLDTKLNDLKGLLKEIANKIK

Structure (SMILES) | Relative Potency to I-menthol (cloned hTRPM8 channel) | Sensory Quality (zygomatic/forehead skin) | Duration (zygomatic/forehead skin) [h] | Onset (zygomatic/forehead skin) [min] | activity at 10 µM (sebocytes [3]) [%] | Activity on sebocyte viability (structure-activity summary of Table 6) (sebocytes [2]) | other results
CCCCCP(=O)(C(C)C)C(C)C [Code 1-5, 1-diisopropylphosphorylpentane] | 0.7 | dynamic | 0.5 | ~1 |  |  | 
CCCCCCP(=O)(C(C)C)C(C)C [Code 1-6, 1-diisopropylphosphorylhexane] | 1.6 | dynamic | 1.3 | ~1 |  |  | 
CCCCCCCP(=O)(C(C)C)C(C)C [Code 1-7, 1-diisopropylphosphorylheptane] | 5.4 | dynamic-icy | 3.2 | ~1 | ≥ 100 |  | Onset of cooling after application (zygomatic/forehead skin): ≤ 1 min; Duration of localized cooling and refreshing sensations (zygomatic/forehead skin; forehead skin, 20 mg/mL, 0.08 to 0.15 mL): several hours; Sebum secretion after topical application [1]: significantly decreased; Sebocyte cell viability as % of controls (FIG. 3) (sebocytes [2]; concentrations in mM, 1-8 at 1 mM): did not inhibit; Inhibition of sebocyte function (human sebocytes; 0.1mM): not seen
CCCCCCCCCP(=O)(C(C)C)C(C)C [Code 1-9, 1-diisopropylphosphorylnonane] | 4.0 | cool | 2.0 | ~2 | ≥ 85 | active | 
CCCCCCCCCCP(=O)(C(C)C)C(C)C [Code 1-10, 1-diisopropylphosphoryldecane] |  |  |  |  | ≥ 100 |  | Activity on TRPM8 (cloned hTRPM8 channel): low potency; Activity relative to 1-8 in the MTT sebocyte assay (sebocytes [2]): 10,000 x; Sebocyte cell viability as % of controls (FIG. 4) (sebocytes [2]): strongly inhibited; Levels / production of squalene (thin layer chromatography, FIG. 5) (sebocytes [4]): lowers
CCCCCCCCCCCCP(=O)(C(C)C)C(C)C [Code 1-12, 1-diisopropylphosphoryldodecane] |  |  |  |  | ~40 |  | Activity on TRPM8 (cloned hTRPM8 channel): low potency; also recorded: very low activity; Activity relative to 1-8 in the MTT sebocyte assay (sebocytes [2]): 10,000 x; Sebocyte cell viability as % of controls (FIG. 4) (sebocytes [2]): strongly inhibited; Inhibition of 3H-thymidine incorporation into sebocytes (sebocytes [3]): clearly inhibited; Levels / production of squalene (thin layer chromatography, FIG. 5) (sebocytes [4]): effective; also recorded: lowers; Concentration at which fully effective (human sebocytes; sebocytes in culture): 0.01 µM
CCCCP(=O)(C(C)CC)C(C)CC (centres unmarked) [Code 2-4, 1-disec-butylphosphorylbutane] | 0.3 | cool | 0.3 | ~1 |  |  | 
CCCCCP(=O)(C(C)CC)C(C)CC (centres unmarked) [Code 2-5, 1-disec-butylphosphorylpentane] | 2.2 | cool | 1.1 | ~1 | ≥ 98 |  | 
CCCCCCP(=O)(C(C)CC)C(C)CC (centres unmarked) [Code 2-6, 1-disec-butylphosphorylhexane] | 4.7 | cold | 1.5 | ~2 | ≥ 100 | absence of activities | 
CCCCCCCP(=O)(C(C)CC)C(C)CC (centres unmarked) [Code 2-7, 1-disec-butylphosphorylheptane] | 3.4 | cold | 2.4 | ~2 | ≥ 85 | absence of activities | 
CCCCCCCCP(=O)(C(C)CC)C(C)CC (centres unmarked) [Code 2-8, 1-disec-butylphosphoryloctane] | 2.9 | cold | 5.6 | 5 | ≥ 90 | more activity than 2-6 or 2-7 | 
CC1=C(/C=C/C(C)=C/C=C/C(C)=C\C(=O)O)C(C)(C)CCC1 [cis-retinoic acid, reference compound] |  |  |  |  |  |  | IGF-1 increased lipids, gel staining (FIG. 5) (sebocytes [4]): inhibited
CC1=C(/C=C/C(C)=C/C=C/C(C)=C/C(=O)O)C(C)(C)CCC1 [trans-retinoic acid, reference compound] |  |  |  |  |  |  | IGF-1 increased lipids, gel staining (FIG. 5) (sebocytes [4]): inhibited
